Laboratory results published in patent US20080113926A1, “9A-Carbamoyl-Y-Aminopropyl- And 9A-Thiocabamoyl-Y-Aminopropyl-Azalides With Antimalarial Activity” (priority 2005, published 2008).
≈ marks a conversion by molar mass, not a printed value.

How the values were obtained:
Format in all cases: cell-based
[1] = test system: Plasmodium falciparum clone CDC/Sierra Leone I (D-6); experiment: In vitro antimalarial [3H]-hypoxanthine incorporation serial dilution assay, D6; conditions: Plasmodium falciparum; P. falciparum D6, parasites exposed for 72 hours
Excerpt: (§1) The in vitro screens for intrinsic antimalarial activity were based on modifications of the procedures described by Desjardins R E, Canfield C J, Haynes J D, Chulay J D. (Quantitative assessment of antimalarial activity in vitro by a semiautomated microdilution technique. Antimicrob Agents Chemother. 1979 December; 16(6):710-8), Chulay J D, Haynes J D, Diggs C L. (Plasmodium falciparum: Assessment of in vitro growth by [3H]hypoxanthine incorporation. Exp. Parasitol. 1983 55:138-146), and Milhous W K, Weatherly N F, Bowdre J H, Desjardins R E. (In vitro activities of and mechanisms of resistance to antifol antimalarial drugs. Antimicrob Agents Chemother. 1985 April; 27(4):525-30). The system was limited to the assessment of the intrinsic activity against the erythrocytic asexual life cycle (blood schizontocides). Two Plasmodium falciparum clones from CDC/Indochina III (W-2) and CDC/Sierra Leone I (D-6) (Oduola A M, Weatherly N F, Bowdre J H, Desjardins R E. Plasmodium falciparum: cloning by single-erythrocyte micromanipulation and heterogeneity in vitro. Exp Parasitol. 1988 66(1):86-95) were used for all assays. TM91C235, a multiple drug resistant isolate from Thailand, was used for the prescreening assay. W-2 is resistant to chloroquine, quinine, and pyrimethamine and susceptible to mefloquine. D-6 tends to be more resistant to mefloquine and susceptible to chloroquine, quinine, and pyrimethamine. All documents cited in this paragraph are incorporated by reference in their entirety.
(§2) All parasites were maintained in continuous long term cultures in RPMI-1640 medium supplemented with 6% washed human A positive (A+) (erythrocytes, 25 mM Hepes, […], and 10% heat inactivated A+ human plasma or ALBUMAX® (lipid-rich bovine serum albumin; Invitrogen, Carlsbad, Calif.). All cultures and assays were conducted at 37° C. under an atmosphere of 5% CO2 and 5% O2, with a balance of N2.
(§3) The prescreening assay uses TM91C235 diluted at a 0.4% parasitemia in a 1% hematocrit in folic acid free and p-aminobenzoic acid free media RPMI-1640 and ALBUMAX®. One mg of the compound is typically dissolved in 100 μl of dimethyl sulfoxide (DMSO). The compound is further diluted in culture medium (FF) with ALBUMAX® for the first initial starting concentration. The rest of the stock drug solution was kept at −70° C. The isolate was preexposed, in duplicate, at three concentrations (25,000 ng/ml, 2,500 ng/ml, and 25 ng/ml) of the test compound for 48 hr in a 96-well microtiter plate (MTP) using the BIOMEK® 2000 automated laboratory workstation. Each MTP contains chloroquine as control to assess the relative activity of the compound and to monitor the response of TM91C235.
(§4) After the preincubation, [^3H]-hypoxanthine was added to each well of the MTP. (The assay relies on the incorporation of radiolabeled hypoxanthine by the parasites, which indicates reproduction, and inhibition of isotope incorporation was attributed to activity of known or candidate antimalarial drugs). After 72 hr of total incubation time, the MTP were frozen to lyse the erythrocytes and parasites. The parasite DNA was recovered by harvesting the lysate onto glass-fiber filter plates using a Packard FilterMate™ Cell Harvester. The radioactivity was counted on a Packard TopCount™ microplate scintillation counter. The results were recorded as counts per minutes (CPM) per well at each drug concentration divided by the arithmetic mean of the CPM from the three untreated infection parasite control wells.
(§5) The serial dilution assay was conducted using the same assay conditions and stock solution of the compound used for the preliminary screen, described above. Both the D-6 and the W-2 clones were used. The compounds were diluted two-fold over 11 different concentration ranges with a starting concentration that was based on the preliminary screen. […]

[2] = test system: Plasmodium falciparum clone CDC/Indochina III (W-2); experiment: In vitro antimalarial [3H]-hypoxanthine incorporation serial dilution assay, W2; conditions: Plasmodium falciparum, W2, 72 h, P. falciparum W2, parasites exposed for 72 hours
Excerpt: as §1, §2, §3, §4, §5

[3] = test system: Plasmodium falciparum TM91C235; experiment: In vitro antimalarial [3H]-hypoxanthine incorporation serial dilution assay, TM91C235; conditions: Plasmodium falciparum; P. falciparum TM91C235, parasites exposed for 72 hours

| SMILES | IC50 [1] | IC50 [2] | IC50 [3] |
| --- | --- | --- | --- |
| CC[C@H]1OC(=O)[C@H](C)[C@@H](O[C@H]2C[C@@](C)(OC)[C@@H](O)[C@H](C)O2)[C@H](C)[C@@H](O[C@@H]2O[C@H](C)C[C@H](N(C)C)[C@H]2O)[C@](C)(O)C[C@@H](C)CN(CCCNC(=O)Nc2ccc3ccccc3c2)[C@H](C)[C@@H](O)[C@]1(C)O [Compound 1] | 0.145 µg/mL (≈ 0.151 µM) | 0.141 µg/mL (≈ 0.146 µM) | 0.0832 µg/mL (≈ 0.0866 µM) |
| CC[C@H]1OC(=O)[C@H](C)[C@@H](O[C@H]2C[C@@](C)(OC)[C@@H](O)[C@H](C)O2)[C@H](C)[C@@H](O[C@@H]2O[C@H](C)C[C@H](N(C)C)[C@H]2O)[C@](C)(O)C[C@@H](C)CN(CCCNC(=O)Nc2ccccc2C(F)(F)F)[C@H](C)[C@@H](O)[C@]1(C)O [Compound 2] | 0.311 µg/mL (≈ 0.318 µM) | 0.36 µg/mL (≈ 0.368 µM) | 0.23 µg/mL (≈ 0.234 µM) |
| CC[C@H]1OC(=O)[C@H](C)[C@@H](O[C@H]2C[C@@](C)(OC)[C@@H](O)[C@H](C)O2)[C@H](C)[C@@H](O[C@@H]2O[C@H](C)C[C@H](N(C)C)[C@H]2O)[C@](C)(O)C[C@@H](C)CN(CCCNC(=S)NCCCc2ccccc2)[C@H](C)[C@@H](O)[C@]1(C)O [Compound 3] | 0.176 µg/mL (≈ 0.181 µM) | 0.112 µg/mL (≈ 0.116 µM) | 0.117 µg/mL (≈ 0.12 µM) |
| CC[C@H]1OC(=O)[C@H](C)[C@@H](O[C@H]2C[C@@](C)(OC)[C@@H](O)[C@H](C)O2)[C@H](C)[C@@H](O[C@@H]2O[C@H](C)C[C@H](N(C)C)[C@H]2O)[C@](C)(O)C[C@@H](C)CN(CCCNC(=S)N(CCC#N)CCCc2ccccc2)[C@H](C)[C@@H](O)[C@]1(C)O [Compound 4] | 0.228 µg/mL (≈ 0.223 µM) | 0.0768 µg/mL (≈ 0.0751 µM) | 0.0541 µg/mL (≈ 0.0529 µM) |
| CC[C@H]1OC(=O)[C@H](C)[C@@H](O[C@H]2C[C@@](C)(OC)[C@@H](O)[C@H](C)O2)[C@H](C)[C@@H](O[C@@H]2O[C@H](C)C[C@H](N(C)C)[C@H]2O)[C@](C)(O)C[C@@H](C)CN(CCCN(CCC#N)C(=S)NCCc2ccccc2)[C@H](C)[C@@H](O)[C@]1(C)O [Compound 5] | 0.091 µg/mL (≈ 0.0902 µM) | 0.169 µg/mL (≈ 0.167 µM) | 0.0732 µg/mL (≈ 0.0726 µM) |
| CC[C@H]1OC(=O)[C@H](C)[C@@H](O[C@H]2C[C@@](C)(OC)[C@@H](O)[C@H](C)O2)[C@H](C)[C@@H](O[C@@H]2O[C@H](C)C[C@H](N(C)C)[C@H]2O)[C@](C)(O)C[C@@H](C)CN(CCCNC(=O)NC(C)c2cccc3ccccc23)[C@H](C)[C@@H](O)[C@]1(C)O (some centres unmarked) [Compound 6] | 0.292 µg/mL (≈ 0.295 µM) | 0.246 µg/mL (≈ 0.249 µM) | 0.118 µg/mL (≈ 0.119 µM) |
| CC[C@H]1OC(=O)[C@H](C)[C@@H](O[C@H]2C[C@@](C)(OC)[C@@H](O)[C@H](C)O2)[C@H](C)[C@@H](O[C@@H]2O[C@H](C)C[C@H](N(C)C)[C@H]2O)[C@](C)(O)C[C@@H](C)CN(CCCN(CCC#N)C(=O)Nc2ccc3ccccc3c2)[C@H](C)[C@@H](O)[C@]1(C)O [Compound 7] | 0.156 µg/mL (≈ 0.154 µM) | 0.298 µg/mL (≈ 0.294 µM) | 0.143 µg/mL (≈ 0.141 µM) |
| CC[C@H]1OC(=O)[C@H](C)[C@@H](O[C@H]2C[C@@](C)(O)[C@@H](O)[C@H](C)O2)[C@H](C)[C@@H](O[C@@H]2O[C@H](C)C[C@H](N(C)C)[C@H]2O)[C@](C)(O)C[C@@H](C)CN(CCCNC(=O)Nc2cccc3ccccc23)[C@H](C)[C@@H](O)[C@]1(C)O [Compound 8] | 0.268 µg/mL (≈ 0.282 µM) | 0.176 µg/mL (≈ 0.186 µM) | 0.143 µg/mL (≈ 0.151 µM) |

Now from value to molecule:

| IC50 [1] | IC50 [2] | IC50 [3] | SMILES |
| --- | --- | --- | --- |
| 0.144 µg/mL (≈ 0.147 µM) | 0.17 µg/mL (≈ 0.174 µM) | 0.159 µg/mL (≈ 0.163 µM) | CC[C@H]1OC(=O)[C@H](C)[C@@H](O[C@H]2C[C@@](C)(OC)[C@@H](O)[C@H](C)O2)[C@H](C)[C@@H](O[C@@H]2O[C@H](C)C[C@H](N(C)C)[C@H]2O)[C@](C)(O)C[C@@H](C)CN(CCCNC(=S)Nc2cccc3ccccc23)[C@H](C)[C@@H](O)[C@]1(C)O [Compound 9] |
| 0.254 µg/mL (≈ 0.244 µM) | 0.308 µg/mL (≈ 0.296 µM) | 0.16 µg/mL (≈ 0.153 µM) | CC[C@H]1OC(=O)[C@H](C)[C@@H](O[C@H]2C[C@@](C)(OC)[C@@H](O)[C@H](C)O2)[C@H](C)[C@@H](O[C@@H]2O[C@H](C)C[C@H](N(C)C)[C@H]2O)[C@](C)(O)C[C@@H](C)CN(CCCN(CCC#N)C(=O)NC(C)c2cccc3ccccc23)[C@H](C)[C@@H](O)[C@]1(C)O (some centres unmarked) [Compound 10] |
| 0.276 µg/mL (≈ 0.267 µM) | 0.217 µg/mL (≈ 0.21 µM) | 0.161 µg/mL (≈ 0.156 µM) | CC[C@H]1OC(=O)[C@H](C)[C@@H](O[C@H]2C[C@@](C)(OC)[C@@H](O)[C@H](C)O2)[C@H](C)[C@@H](O[C@@H]2O[C@H](C)C[C@H](N(C)C)[C@H]2O)[C@](C)(O)C[C@@H](C)CN(CCCN(CCC#N)C(=O)Nc2ccc(Cl)cc2Cl)[C@H](C)[C@@H](O)[C@]1(C)O [Compound 11] |
| 0.233 µg/mL (≈ 0.235 µM) | 0.2 µg/mL (≈ 0.201 µM) | 0.163 µg/mL (≈ 0.164 µM) | CC[C@H]1OC(=O)[C@H](C)[C@@H](O[C@H]2C[C@@](C)(OC)[C@@H](O)[C@H](C)O2)[C@H](C)[C@@H](O[C@@H]2O[C@H](C)C[C@H](N(C)C)[C@H]2O)[C@](C)(O)C[C@@H](C)CN(CCCN(CCC#N)C(=S)NCc2ccccc2)[C@H](C)[C@@H](O)[C@]1(C)O [Compound 12] |
| 0.291 µg/mL (≈ 0.309 µM) | 0.18 µg/mL (≈ 0.191 µM) | 0.189 µg/mL (≈ 0.2 µM) | CC[C@H]1OC(=O)[C@H](C)[C@@H](O[C@H]2C[C@@](C)(OC)[C@@H](O)[C@H](C)O2)[C@H](C)[C@@H](O[C@@H]2O[C@H](C)C[C@H](N(C)C)[C@H]2O)[C@](C)(O)C[C@@H](C)CN(CCCNC(=S)NCc2ccccc2)[C@H](C)[C@@H](O)[C@]1(C)O [Compound 13] |
| 0.232 µg/mL (≈ 0.242 µM) | 0.18 µg/mL (≈ 0.188 µM) | 0.215 µg/mL (≈ 0.225 µM) | CC[C@H]1OC(=O)[C@H](C)[C@@H](O[C@H]2C[C@@](C)(OC)[C@@H](O)[C@H](C)O2)[C@H](C)[C@@H](O[C@@H]2O[C@H](C)C[C@H](N(C)C)[C@H]2O)[C@](C)(O)C[C@@H](C)CN(CCCNC(=S)NCCc2ccccc2)[C@H](C)[C@@H](O)[C@]1(C)O [Compound 14] |
| 0.539 µg/mL (≈ 0.531 µM) | 1.42 µg/mL (≈ 1.4 µM) | 0.263 µg/mL (≈ 0.259 µM) | CC[C@H]1OC(=O)[C@H](C)[C@@H](O[C@H]2C[C@@](C)(OC)[C@@H](O)[C@H](C)O2)[C@H](C)[C@@H](O[C@@H]2O[C@H](C)C[C@H](N(C)C)[C@H]2O)[C@](C)(O)C[C@@H](C)CN(CCCN(CCC#N)C(=O)Nc2cccc3ccccc23)[C@H](C)[C@@H](O)[C@]1(C)O [Compound 15] |
| 0.192 µg/mL (≈ 0.226 µM) | – | 0.157 µg/mL (≈ 0.184 µM) | CC[C@H]1OC(=O)[C@H](C)[C@@H](O)[C@H](C)[C@@H](O[C@@H]2O[C@H](C)C[C@H](N(C)C)[C@H]2O)[C@](C)(O)C[C@@H](C)CN(CCCN(CCC#N)C(=S)NCCc2ccccc2)[C@H](C)[C@@H](O)[C@]1(C)O [Compound 31] |
| 0.155 µg/mL (≈ 0.18 µM) | – | 0.106 µg/mL (≈ 0.122 µM) | CC[C@H]1OC(=O)[C@H](C)[C@@H](O)[C@H](C)[C@@H](O[C@@H]2O[C@H](C)C[C@H](N(C)C)[C@H]2O)[C@](C)(O)C[C@@H](C)CN(CCCN(CCC#N)C(=S)NCCCc2ccccc2)[C@H](C)[C@@H](O)[C@]1(C)O [Compound 32] |
| 0.962 µg/mL (≈ 1.1 µM) | – | 0.277 µg/mL (≈ 0.316 µM) | CC[C@H]1OC(=O)[C@H](C)[C@@H](O)[C@H](C)[C@@H](O[C@@H]2O[C@H](C)C[C@H](N(C)C)[C@H]2O)[C@](C)(O)C[C@@H](C)CN(CCCN(CCC#N)C(=O)Nc2ccc(Cl)cc2Cl)[C@H](C)[C@@H](O)[C@]1(C)O [Compound 33] |
| 0.203 µg/mL (≈ 0.237 µM) | – | 0.191 µg/mL (≈ 0.223 µM) | CC[C@H]1OC(=O)[C@H](C)[C@@H](O)[C@H](C)[C@@H](O[C@@H]2O[C@H](C)C[C@H](N(C)C)[C@H]2O)[C@](C)(O)C[C@@H](C)CN(CCCN(CCC#N)C(=O)Nc2ccc3ccccc3c2)[C@H](C)[C@@H](O)[C@]1(C)O [Compound 34] |
